Structures can show the parent of a compound that is named as a salt.
Assays:
retinal ganglion cells [1] = test: Screening of test substances: protection of retinal ganglion cells from NMDA-induced apoptosis in wild-type and NF-κBp50-deficient mice; format: in vivo, mouse; conditions: 5 mM NMDA into vitreous; for effect of protecting retinal ganglion cells from NMDA-induced apoptosis (conclusion in words): wild-type and NF-κBp50-deficient mice, 24 hours
Method: (§1) Intravitreal NMDA injection was performed. 2 μl of 5 mM solution of NMDA in buffered saline solution (BSS) was injected into the vitreous of the left eye of each mouse aged 2 months. The right eyes were injected with BSS alone. At 24 hours and 4 days after injection, the eyes were enucleated and fixed in 4% paraformaldehyde in PB, followed by dehydration and paraffin embedding. Tranverse sections were made through the optic disc and stained with hematoxylin and eosin (H&E). Cells of 0.35 mm length at 0.3 mm from the edge of the optic disc in the ganglion cell layer were counted except for cells infiltrating the ganglion cell layer. The average number of cells per field was analyzed, and statistical differences were analyzed by the Student's t test.
By intraperitoneal administration, phosphate buffered saline (PBS) as control substance was respectively administered to wild-type mice and NF-κBp50-deficient mice once daily for 7 days. 5 mM of NMDA was directly administered into vitreous of the mice, and then the number of retinal ganglion cells after 24 hours was counted.
By intraperitoneal administration, 10 mg/kg of memantine hydrochloride, which is used as a curative medicine for Alzheimer type dementia and is an antagonist of NMDA receptor as one of glutamic acid receptor, was respectively administered to wild-type mice and […] mice once daily for 7 days. 5 mM of NMDA was directly administered into vitreous of the mice, and then the number of retinal ganglion cells after 24 hours were counted.
100 mg/kg of lomerizine hydrochloride, which is used as a curative medicine for migraine and is a piperazine-type calcium inhibitor, was respectively administered orally via catheters to wild-type mice and NF-κBp50-deficient mice once daily for 7 days. 5 mM of NMDA was directly administered into vitreous thereof, and then the number of retinal ganglion cells after 24 hours was numerated.
By intraperitoneal administration, 10 mg/kg of MK-801, which is NMDA receptor antagonist and is (5S,10R)-[…]-5-methyl-10,11-dihydro-5H-dibenzo[a,d]-cyclo-hepten-5,10-imine hydrogen maleate, was respectively administered to wild-type mice and NF-κBp50-deficient mice once daily for 7 days. 5 mM of NMDA was directly administered into vitreous thereof, and then the number of retinal ganglion cells after 24 hours was counted.
A control group was kept alike with administration for 2 weeks instead of administration of PBS for 7 days under above-mentioned control group. On the other hand, 3 mg/kg of […] was respectively administered to wild-type mice and NF-κBp50-deficient mice once daily for 2 weeks by intraperitoneal administration. 5 mM of NMDA was directly administered into vitreous thereof, and then the number of retinal ganglion cells after 24 hours was counted.

retinal ganglion cells [2] = test: Susceptibility of NMDA-induced neurotoxicity (intravitreal NMDA, count of live ganglion cells) in wild-type and NF-κBp50-deficient mice; format: in vivo, mouse; conditions: for cell death in GCL (ganglion cell layer): 2 months old, 10 nmol NMDA intravitreal, 24 hours, FIG. 5
Method: as §1
Since NMDA receptor-mediated excitotoxicity has been reported to contribute to glaucomatous neuropathy and the NMDA receptor-mediated […] leads apoptosis of the neurons, the effect of NF-κBp50 on NMDA-induced neurotoxicity was examined. NMDA has excitotoxicity at a high concentration of 100 nmol which promptly leads cell death. The results of histological examination of the retinas at 24 hours after intravitreal injection of 10 nmol NMDA, which is a relatively low concentration as for NMDA-induced neurotoxicity, are shown in FIG. 5.
The live cells were counted in length of 0.35 mm at 0.3 mm each from the edge of the optic disc. Bar graphs show the number of cells in GCL at time before and 24 hours after NMDA-treatment. The average number of cells per field was analyzed by the two-tailed t-test. Statistical differences were analyzed by the Student's t test. Data are mean±SEM (n=6 to 7 mice). *1p<0.01 versus wild-type mice. *2p<0.01 versus wild-type mice.
[…] of NMDA were directly administered into vitreous respectively, and then the number of live ganglion cells was counted. As a control, the number of live ganglion cells without administration of NMDA was also counted. […] On the other hand, in the case of wild-type mice and NF-κBp50-deficient mice with injection of […] NMDA, which is a relatively low concentration, while almost all of the ganglion cells in wild-type mice survived at 4 days after NMDA treatment, about 60% of the ganglion cells in NF-κBp50-deficient mice were dead within 24 hours by apoptosis and moreover almost all of them were dead within 96 hours.

[3] = wild-type mice and NF-κBp50-deficient mice, injection of 50 mM NMDA into vitreous, FIG. 6

C=CC[C@@H]1/C=C(\C)C[C@H](C)C[C@H](OC)[C@H]2O[C@@](O)(C(=O)C(=O)N3CCCC[C@H]3C(=O)O[C@H](/C(C)=C/[C@@H]3CC[C@@H](O)[C@H](OC)C3)[C@H](C)[C@@H](O)CC1=O)[C@H](C)C[C@@H]2OC [KF506]
retinal ganglion cells dead by apoptosis within 24 hours after administration of NMDA (retinal ganglion cells [1]; NF-κBp50-deficient mice, 3 mg/kg intraperitoneal once daily for 2 weeks, FIG. 7f): no more than 34%
retinal ganglion cells dead by apoptosis within 24 hours after administration of NMDA (retinal ganglion cells [1]; wild-type mice, 3 mg/kg intraperitoneal once daily for 2 weeks, FIG. 7f): about 5%

C[C@]12N[C@H](Cc3ccccc31)c1ccccc12 [MK-801, (5S,10R)-(−)-5-methyl-10,11-dihydro-5H-dibenzo[a,d]-cyclo-hepten-5,10-imine hydrogen maleate]
retinal ganglion cells dead by apoptosis within 24 hours after administration of NMDA (retinal ganglion cells [1]; NF-κBp50-deficient mice, 10 mg/kg intraperitoneal once daily for 7 days, FIG. 7d): no more than 9%
effect of protecting retinal ganglion cells from NMDA-induced apoptosis (conclusion in words) (retinal ganglion cells [1]): had pharmacological effects of protecting retinal ganglion cells from NMDA-induced apoptosis
retinal ganglion cells dead by apoptosis within 24 hours after administration of NMDA (retinal ganglion cells [1]; wild-type mice, 10 mg/kg intraperitoneal once daily for 7 days, FIG. 7d): about 2%

CN[C@H](CC(=O)O)C(=O)O [NMDA, N-methyl D aspartate]
cell death in GCL (ganglion cell layer) (retinal ganglion cells [2]; NF-κBp50-deficient mice): markedly induced cell death in GCL
ganglion cells dead within 96 hours (retinal ganglion cells [2]; NF-κBp50-deficient mice, injection of 5 nM NMDA into vitreous, FIG. 6): almost all
ganglion cells dead within 24 hours by apoptosis (retinal ganglion cells [2]; NF-κBp50-deficient mice, injection of 5 mM NMDA into vitreous, FIG. 6): about 60%
ganglion cells dead by apoptosis within 24 hours after NMDA treatment (retinal ganglion cells [2]; [3]): about half
ganglion cells dead by apoptosis within 96 hours (4 days) (retinal ganglion cells [2]; [3]): almost all
cell death in GCL (ganglion cell layer) (retinal ganglion cells [2]; wild-type mice): no significance was observed
ganglion cells survived at 4 days after NMDA treatment (retinal ganglion cells [2]; wild-type mice, injection of 5 mM NMDA into vitreous, FIG. 6): almost all

COc1ccc(CN2CCN(C(c3ccc(F)cc3)c3ccc(F)cc3)CC2)c(OC)c1OC [lomerizine hydrochloride]
retinal ganglion cells dead by apoptosis within 24 hours after administration of NMDA (retinal ganglion cells [1]; NF-κBp50-deficient mice, 100 mg/kg orally via catheters once daily for 7 days, FIG. 7c): no more than 28%
retinal ganglion cells dead by apoptosis within 24 hours after administration of NMDA (retinal ganglion cells [1]; wild-type mice, 100 mg/kg orally via catheters once daily for 7 days, FIG. 7c): about 2%

CC12CC3CC(C)(C1)CC(N)(C3)C2 [memantine hydrochloride]
retinal ganglion cells dead by apoptosis within 24 hours after administration of NMDA (retinal ganglion cells [1]; NF-κBp50-deficient mice, 10 mg/kg intraperitoneal once daily for 7 days, FIG. 7b): about 15%
effect of protecting retinal ganglion cells from NMDA-induced apoptosis (conclusion in words) (retinal ganglion cells [1]): had pharmacological effects of protecting retinal ganglion cells from NMDA-induced apoptosis
retinal ganglion cells dead by apoptosis within 24 hours after administration of NMDA (retinal ganglion cells [1]; wild-type mice, 10 mg/kg intraperitoneal once daily for 7 days, FIG. 7b): about 3%
